The source of these data is article PMC7486443, “Generation of Phenothiazine with Potent Anti-TLK1 Activity for Prostate Cancer Therapy” (iScience, 2020).

Targets include MARK3 (Homo sapiens, UniProt P27448); FGFR4 (Homo sapiens, UniProt P22455); PRKD2 (Homo sapiens, UniProt Q9BZL6); PIK3CA(M1043I) (Homo sapiens, UniProt P42336, M1043I); BUB1 (Homo sapiens, UniProt O43683); EGFR (Homo sapiens, UniProt P00533); EPHB6 (Homo sapiens, UniProt O15197); CASK (Homo sapiens, UniProt O14936); WEE2 (Homo sapiens, UniProt P0C1S8); IRAK3 (Homo sapiens, UniProt Q9Y616); GRK2 (Homo sapiens, UniProt P25098).

Assay in all cases: biochemical
Common to all, as to design: DiscoverX KINOMEscan scanMAX competition binding panel, single concentration, percent of control; remaining binding: dose or concentration left out as unconfirmed
Holding throughout (details): KINOMEscan binding, percent of control; read-out: Table S4_SCANMAX REPORT - related to Fig. 1 / Percent Control

A further assay concerns the target T1, MLK1 (Homo sapiens, UniProt P80192).
T1 construct: gene MAP3K9

Another assay deals with T2, YANK3 (Homo sapiens, UniProt Q86UX6).
T2 construct: gene STK32C

For assay [1], the target named is T3, ABL1(T315I)-nonphosphorylated (Homo sapiens, UniProt P00519, T315I).
T3 construct: nonphosphorylated

Another assay addresses T4, ADCK4 (Homo sapiens, UniProt Q96D53).
T4 construct: gene COQ8B

The target of a further assay is T5, AMPK-alpha1 (Homo sapiens, UniProt Q13131).
T5 construct: gene PRKAA1

Another assay addresses T6, MST3 (Homo sapiens, UniProt Q9Y6E0).
T6 construct: gene STK24

The next assay deals with T7, PIK4CB (Homo sapiens, UniProt Q9UBF8).
T7 construct: gene PI4KB

WEE2, sequence (P0C1S8 whole entry): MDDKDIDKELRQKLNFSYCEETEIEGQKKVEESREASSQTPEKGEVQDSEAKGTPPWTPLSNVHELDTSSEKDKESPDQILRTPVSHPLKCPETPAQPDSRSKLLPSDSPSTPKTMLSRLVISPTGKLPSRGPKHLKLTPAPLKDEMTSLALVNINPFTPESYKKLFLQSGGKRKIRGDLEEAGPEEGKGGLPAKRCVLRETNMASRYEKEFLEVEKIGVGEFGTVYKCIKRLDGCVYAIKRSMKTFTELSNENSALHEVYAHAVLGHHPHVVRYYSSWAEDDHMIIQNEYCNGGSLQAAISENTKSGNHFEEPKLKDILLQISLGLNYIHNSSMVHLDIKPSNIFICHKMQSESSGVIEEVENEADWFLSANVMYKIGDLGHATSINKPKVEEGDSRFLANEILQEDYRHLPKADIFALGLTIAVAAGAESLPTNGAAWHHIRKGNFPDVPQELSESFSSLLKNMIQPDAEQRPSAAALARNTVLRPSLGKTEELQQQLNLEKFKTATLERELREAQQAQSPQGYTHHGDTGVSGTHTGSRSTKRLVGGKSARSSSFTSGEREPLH
T6 sequence (Q9Y6E0 whole entry): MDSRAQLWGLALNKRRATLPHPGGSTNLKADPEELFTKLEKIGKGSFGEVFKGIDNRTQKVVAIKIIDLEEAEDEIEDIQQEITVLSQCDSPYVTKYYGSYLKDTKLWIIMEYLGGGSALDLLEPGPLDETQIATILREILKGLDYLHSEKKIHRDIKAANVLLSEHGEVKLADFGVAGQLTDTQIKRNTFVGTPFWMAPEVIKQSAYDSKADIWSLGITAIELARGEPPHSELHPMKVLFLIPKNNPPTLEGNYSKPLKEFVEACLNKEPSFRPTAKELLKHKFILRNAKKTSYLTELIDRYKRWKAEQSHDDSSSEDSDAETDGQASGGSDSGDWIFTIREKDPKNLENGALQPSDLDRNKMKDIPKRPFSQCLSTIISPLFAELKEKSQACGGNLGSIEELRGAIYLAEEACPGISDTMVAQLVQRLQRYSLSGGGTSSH
EGFR, sequence (P00533 whole entry): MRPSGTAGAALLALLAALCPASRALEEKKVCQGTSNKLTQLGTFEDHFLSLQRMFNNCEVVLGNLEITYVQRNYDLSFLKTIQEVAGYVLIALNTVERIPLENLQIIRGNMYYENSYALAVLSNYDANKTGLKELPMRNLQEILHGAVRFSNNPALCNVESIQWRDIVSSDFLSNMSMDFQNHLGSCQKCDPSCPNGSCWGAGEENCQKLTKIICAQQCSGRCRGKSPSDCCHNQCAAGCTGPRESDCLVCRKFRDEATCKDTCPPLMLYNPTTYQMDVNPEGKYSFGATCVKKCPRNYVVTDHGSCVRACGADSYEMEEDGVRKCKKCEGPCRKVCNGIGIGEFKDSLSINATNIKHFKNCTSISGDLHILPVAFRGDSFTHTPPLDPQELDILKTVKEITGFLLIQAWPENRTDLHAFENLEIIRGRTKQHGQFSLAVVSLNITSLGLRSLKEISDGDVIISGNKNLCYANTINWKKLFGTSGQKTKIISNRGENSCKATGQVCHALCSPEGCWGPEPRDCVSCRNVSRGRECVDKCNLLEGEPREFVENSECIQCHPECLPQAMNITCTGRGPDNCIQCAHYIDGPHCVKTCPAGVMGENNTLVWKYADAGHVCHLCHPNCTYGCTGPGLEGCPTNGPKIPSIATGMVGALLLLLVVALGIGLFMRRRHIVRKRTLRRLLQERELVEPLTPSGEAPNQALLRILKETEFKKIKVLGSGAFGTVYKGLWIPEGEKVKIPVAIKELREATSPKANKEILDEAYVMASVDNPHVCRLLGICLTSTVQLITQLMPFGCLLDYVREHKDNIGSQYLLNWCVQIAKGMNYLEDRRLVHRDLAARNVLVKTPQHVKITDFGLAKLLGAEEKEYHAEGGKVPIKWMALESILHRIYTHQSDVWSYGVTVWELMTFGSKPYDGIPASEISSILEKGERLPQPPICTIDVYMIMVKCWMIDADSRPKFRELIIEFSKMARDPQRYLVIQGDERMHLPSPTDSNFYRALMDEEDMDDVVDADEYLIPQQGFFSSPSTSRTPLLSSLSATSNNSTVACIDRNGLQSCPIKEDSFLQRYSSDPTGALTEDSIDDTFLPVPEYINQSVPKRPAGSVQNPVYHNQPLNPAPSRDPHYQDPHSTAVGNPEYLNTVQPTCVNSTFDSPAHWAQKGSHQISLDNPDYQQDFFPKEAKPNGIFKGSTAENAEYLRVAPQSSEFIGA
T5 sequence (Q13131 whole entry): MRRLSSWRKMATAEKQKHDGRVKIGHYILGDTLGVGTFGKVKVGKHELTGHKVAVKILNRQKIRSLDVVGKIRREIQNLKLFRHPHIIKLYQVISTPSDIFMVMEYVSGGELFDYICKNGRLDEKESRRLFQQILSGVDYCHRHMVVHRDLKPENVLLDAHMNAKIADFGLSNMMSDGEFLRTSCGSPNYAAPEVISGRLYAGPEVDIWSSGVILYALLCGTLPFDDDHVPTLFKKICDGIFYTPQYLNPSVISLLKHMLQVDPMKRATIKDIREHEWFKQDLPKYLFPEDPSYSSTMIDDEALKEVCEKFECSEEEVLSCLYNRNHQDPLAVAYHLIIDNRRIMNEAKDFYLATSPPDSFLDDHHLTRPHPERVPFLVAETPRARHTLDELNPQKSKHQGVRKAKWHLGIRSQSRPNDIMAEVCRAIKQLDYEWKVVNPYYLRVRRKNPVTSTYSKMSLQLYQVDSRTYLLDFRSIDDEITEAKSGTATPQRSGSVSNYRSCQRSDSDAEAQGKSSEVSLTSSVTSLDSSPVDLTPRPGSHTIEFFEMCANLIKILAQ
EPHB6, sequence (O15197 whole entry): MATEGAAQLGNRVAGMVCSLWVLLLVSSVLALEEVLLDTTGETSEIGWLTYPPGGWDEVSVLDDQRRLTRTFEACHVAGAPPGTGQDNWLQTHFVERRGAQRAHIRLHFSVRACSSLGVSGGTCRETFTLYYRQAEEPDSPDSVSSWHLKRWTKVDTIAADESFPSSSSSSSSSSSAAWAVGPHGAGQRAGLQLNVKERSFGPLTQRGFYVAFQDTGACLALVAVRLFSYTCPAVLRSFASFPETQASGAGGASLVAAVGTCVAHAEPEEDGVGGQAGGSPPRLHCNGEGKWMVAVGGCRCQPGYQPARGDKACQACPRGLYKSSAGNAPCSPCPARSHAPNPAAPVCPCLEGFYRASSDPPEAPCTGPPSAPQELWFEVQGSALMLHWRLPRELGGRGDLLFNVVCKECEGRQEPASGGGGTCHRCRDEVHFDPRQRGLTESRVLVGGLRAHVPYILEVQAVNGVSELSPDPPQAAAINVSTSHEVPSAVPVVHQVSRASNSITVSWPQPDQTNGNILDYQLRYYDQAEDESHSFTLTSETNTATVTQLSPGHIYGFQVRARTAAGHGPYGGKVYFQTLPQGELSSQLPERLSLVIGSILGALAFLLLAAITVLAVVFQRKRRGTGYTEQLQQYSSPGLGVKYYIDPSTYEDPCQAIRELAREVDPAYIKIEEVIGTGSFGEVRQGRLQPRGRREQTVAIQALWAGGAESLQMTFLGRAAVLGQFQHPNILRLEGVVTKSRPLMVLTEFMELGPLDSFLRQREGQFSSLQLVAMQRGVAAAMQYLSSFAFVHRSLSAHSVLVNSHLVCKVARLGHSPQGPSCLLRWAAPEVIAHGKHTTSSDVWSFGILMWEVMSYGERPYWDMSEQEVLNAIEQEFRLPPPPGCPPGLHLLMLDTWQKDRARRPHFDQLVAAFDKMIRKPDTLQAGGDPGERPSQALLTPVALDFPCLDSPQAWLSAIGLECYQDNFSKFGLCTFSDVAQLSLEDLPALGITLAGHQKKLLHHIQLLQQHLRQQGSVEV
MARK3, sequence (P27448 whole entry): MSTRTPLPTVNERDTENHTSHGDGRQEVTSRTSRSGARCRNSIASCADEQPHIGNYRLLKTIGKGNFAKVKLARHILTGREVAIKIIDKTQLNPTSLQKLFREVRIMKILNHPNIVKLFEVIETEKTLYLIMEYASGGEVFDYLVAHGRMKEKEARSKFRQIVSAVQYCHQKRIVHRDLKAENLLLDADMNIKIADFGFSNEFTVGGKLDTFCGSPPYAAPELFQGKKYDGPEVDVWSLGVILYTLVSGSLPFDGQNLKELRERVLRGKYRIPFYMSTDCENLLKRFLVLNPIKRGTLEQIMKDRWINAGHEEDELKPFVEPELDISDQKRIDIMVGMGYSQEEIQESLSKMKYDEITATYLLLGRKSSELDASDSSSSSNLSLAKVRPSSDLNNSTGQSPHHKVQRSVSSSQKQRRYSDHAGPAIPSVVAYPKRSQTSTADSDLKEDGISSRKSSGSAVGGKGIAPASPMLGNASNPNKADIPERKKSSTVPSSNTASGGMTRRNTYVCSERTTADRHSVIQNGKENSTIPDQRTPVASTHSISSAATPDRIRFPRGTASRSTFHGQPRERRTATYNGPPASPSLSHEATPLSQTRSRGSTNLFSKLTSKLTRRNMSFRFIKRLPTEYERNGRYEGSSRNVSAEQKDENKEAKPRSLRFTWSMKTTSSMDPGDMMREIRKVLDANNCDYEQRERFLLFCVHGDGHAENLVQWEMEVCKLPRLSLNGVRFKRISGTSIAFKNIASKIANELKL
T2 sequence (Q86UX6 whole entry): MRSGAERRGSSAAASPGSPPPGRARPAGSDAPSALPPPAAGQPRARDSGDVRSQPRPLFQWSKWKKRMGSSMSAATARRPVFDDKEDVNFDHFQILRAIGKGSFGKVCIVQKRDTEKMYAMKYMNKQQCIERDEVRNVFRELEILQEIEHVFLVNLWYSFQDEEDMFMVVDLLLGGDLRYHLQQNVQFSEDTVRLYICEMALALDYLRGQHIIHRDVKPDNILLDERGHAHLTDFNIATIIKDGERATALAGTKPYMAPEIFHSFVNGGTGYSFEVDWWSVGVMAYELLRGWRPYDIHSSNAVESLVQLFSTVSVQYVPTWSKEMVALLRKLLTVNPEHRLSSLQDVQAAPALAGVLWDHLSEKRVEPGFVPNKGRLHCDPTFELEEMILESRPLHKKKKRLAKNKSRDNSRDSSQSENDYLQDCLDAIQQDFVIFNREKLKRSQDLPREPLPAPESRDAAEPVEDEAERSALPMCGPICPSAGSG

Take `c1ccc2c(c1)Sc1ccccc1N2CCN1CCOCC1` [J54]: the remaining binding at MLK1 was determined as 97%; at YANK3, 100%; in assay [1], 94%; on MARK3 it was 100%; at FGFR4, 100%; at PRKD2, 95%. Also, the remaining binding on PIK3CA(M1043I) came to 98%; on BUB1, 79%; on ADCK4 it was 75%; on AMPK-alpha1, 100%; on EGFR, 92%; at EPHB6, 74%. Besides, the remaining binding on CASK amounted to 100%; at MST3 it was 100%; on PIK4CB it was 100%; at WEE2, 100%; on IRAK3, 90%; on GRK2, 93%.
